# “Also recorded” adds a separate entry of the source. Like-named read-outs stand apart in the source and are kept apart here.
# Key:
# [1] = Plasma pharmacokinetics of BMS-188797 in patients, cycle 1 (HPLC, noncompartmental analysis); assay type: in vivo, human; settings: for AUC(0-inf) / Cmax / half-life: human, plasma, intravenous
# Procedure: In all, 5 ml of blood were collected for pharmacokinectic analysis using Becton-Dickenson Vacutainers® that contained K3EDTA as the anticoagulant. Blood sampling for pharmacokinetics analysis was performed in all patients during cycle 1. Serial blood samples were drawn at the following times relative to the start of the 1 h infusion of BMS-188797: predose, 30 min, 58 min (drawn prior to the end of the infusion), and 1.25, 1.5, 2, 2.5, 3, 4, 5, 6, 8, 24, 48 and 72 h. Within 1 h of collection, the plasma was separated by centrifugation at 1000 rpm for 15 min at 4°C. Plasma was stored at or below […] until analysis. Plasma samples were analysed for BMS-188797 concentrations by HPLC. After the addition of internal standard, BMS-183061, to 1.0 ml of plasma, the sample was loaded onto a CN-U solid-phase extraction column. The compounds were eluted with 0.1% formic acid in methanol, the eluate evaporated to dryness, and the residue reconstituted. Chromatographic separation of the compounds was achieved on a YMC-ODS-AQ, 4.6 × 150 mm, 3 μm column using a mobile phase containing 30% water in acetonitrile. Detection was by ultraviolet absorbance at 228 nm. The standard curve range was 2–1000 ng ml^−1. The coefficient of variation (CV) for the between- and within-run precision for analytical quality control samples were no greater than 3.0 and 7.1%, respectively
# Estimates of pharmacokinetic parameters for BMS-188797 were derived from individual concentration–time data sets by noncompartmental analyses ([Gibaldi and Perrier, 1982]). The values of the maximum plasma concentration (Cmax) were recorded directly from experimental observations. The area under the plasma concentration vs. time curve from time zero to the time of the last measurable concentration T (AUC0-T) was calculated using a combination of linear and log trapezoidal summations. The first-order rate constant of decline of BMS-188797 concentrations in the terminal phase of the plasma concentration–time data set, λ, was estimated by log-linear regression, using no weighting factor, of at least three data points yielding a minimum mean square error. The absolute value of λ was used to estimate the apparent terminal elimination half-life, t1/2. The last measurable concentration and the rate constant, λ, were used to extrapolate the AUC0-T to estimate AUC0-∞ (the area under the curve from time zero to infinity). The total body clearance (Cl) was calculated by dividing the dose by AUC0-∞. The volume of distribution at steady state (VSS) was calculated using standard noncompartmental methods.
# [2] = test system: patients with advanced solid tumours; assay: Phase I dose escalation of BMS-188797 plus cisplatin: DLT, MTD and toxicity (NCI CTC v2.0); assay type: in vivo
# Procedure: This study was an open-label, single-centre, phase I, dose-escalation trial with the primary objective to determine the MTD and DLT and to recommend a future phase II dose. Secondary objectives were safety, antitumour activity and pharmacokinetics of the experimental drug. The study was carried out with ethical committee approval.
# BMS-188797 administered by a 1-h infusion was followed by a 1-h infusion of cisplatin starting 30 min after the end of the BMS-188797 infusion; both drugs were given on day 1, every 3 weeks. Six treatment cycles were planned. Treatment had to be discontinued upon progression or occurance of intolerable toxicity.
# If no further DLT occurred, the next DL was opened. If the total number of patients with DLT at any DL was two or higher, then dose escalation was terminated and additional patients were enrolled at the next lower DL. The MTD was defined as the DL at which none of the three or one of six patients experienced a DLT. Once the MTD had been established, accrual at the respective DL was expanded to determine its suitability as the recommended phase II dose.
# The DLT was defined as first-course toxicity with ANC <500 μl^−1 for ⩾5 days, or febrile neutropenia (fever >38.5°C and ANC <1000 μl^−1), or thrombocytopenia <25,000 μl^–1; or bleeding requiring platelet transfusion, or any other drug-related grade ⩾3 toxicity except fatigue/asthenia, transient arthralgia/myalgia, or grade 3 AST/ALT elevation (resolving to baseline within 3 weeks). Furthermore, delayed recovery from toxicity related to treatment with BMS-188797 and cisplatin that delayed scheduled retreatment for 21 days or longer was regarded as DLT.
# (§1) Toxicity was evaluated according to NCI CTC (Vers. 2.0; revised April 30, 1999) in all patients receiving study drug. Tumour measurement was performed in patients with measurable disease after every other cycle; response was assessed according to World Health Organization (WHO) criteria. Ascites or serum tumour marker elevations were not considered in the assessment of response status except in case of progressive disease or complete remission when both had to be normalised.
# [3] = test system: patients with advanced solid tumours; assay: Antitumour activity, response by WHO criteria; assay type: in vivo, human
# Procedure: as §1
# [4] = test system: patients with advanced malignancies; set-up: method as in Sullivan et al, 2000; settings: single agent, 1-h infusion every 3 weeks; ref Sullivan et al, 2000; cited from earlier work
# [5] = test system: patients with advanced malignancies; set-up: method as in Advani et al (2003); settings: single agent, weekly administration; ref Advani et al (2003); cited from earlier work
# [6] = test system: patients; set-up: method as in Sullivan et al, 2001; settings: ref Sullivan et al, 2001, cited from earlier work
# [7] = test system: patients with advanced malignancies; set-up: method as in Advani et al, 2002; settings: weekly BMS-188797 with carboplatin, DLs AUC 6/33 mg m−2 and AUC 5/43 mg m−2, preliminary data; ref Advani et al, 2002; cited from earlier work
# [8] = test system: human tumour cell lines highly resistant to paclitaxel; set-up: method as in Rose et al, 2001; settings: ref Rose et al, 2001, cited from earlier work
# [9] = test system: paclitaxel-resistant tumour models in mice; set-up: method as in Rose et al, 2001; settings: ref Rose et al, 2001; cited from earlier work
# [10] = 80 mg m−2 1-h infusion with cisplatin 75 mg m−2, cycle 1, n=3, mean±s.d.
# [11] = 110 mg m−2 1-h infusion with cisplatin 75 mg m−2, cycle 1, n=12, mean±s.d.
# [12] = 150 mg m−2 1-h infusion with cisplatin 75 mg m−2, cycle 1, n=1
# [13] = mean±s.d. of the three dose groups (80, 110, 150 mg m−2), cycle 1
# [14] = 1-h infusion every 3 weeks combined with cisplatin 75 mg m−2
smiles,measurement,setting,value
"COC(=O)O[C@@]12CO[C@@H]1C[C@H](O)[C@@]1(C)C(=O)[C@H](OC(C)=O)C3=C(C)[C@@H](OC(=O)[C@H](O)[C@@H](NC(=O)c4ccccc4)c4ccccc4)C[C@@](O)([C@@H](OC(=O)c4ccccc4)[C@H]21)C3(C)C [BMS-188797, 4-desacetyl-4-methyl carbonate derivate of paclitaxel]",Cl,[1]; [10],"333±14 (317, 344) ml min−1 m−2"
same,VSS,[1]; [10],"331±135 (214, 478) l m−2"
same,interpatient coefficient of variation of CL,[1]; 110 mg m−2,19%
same,interpatient coefficient of variation of VSS,[1]; 110 mg m−2,35%
same,interpatient coefficient of variation of t1/2,[1]; 110 mg m−2,24%
same,Cl,[1]; [11],"322±60 (234, 437) ml min−1 m−2"
same,VSS,[1]; [11],"244±86 (115, 395) l m−2"
same,range of AUC0-∞ values,[1]; 110 mg m−2 DL,1.8 fold
same,Cl,[1]; [12],206 NA ml min−1 m−2
same,VSS,[1]; [12],209 NA l m−2
same,dose dependence (linearity) of pharmacokinetics,[1]; 80-150 mg m−2 with cisplatin 75 mg m−2,"appeared linear through the 110 mg m^−2, but not through the 150 mg m^−2 DL; also recorded: appeared independent of dose through the 110 mg m^−2 DL, but not through the 150 mg m^−2 DL; also recorded: appeared linear through a DL of 110 mg m^−2"
same,AUC(0-inf),[1]; [10],4000 ± 184 ng·h/mL
same,Cmax,[1]; [10],2650 ± 690 ng/mL
same,half-life,"[1]; 80 mg m−2 1-h infusion with cisplatin 75 mg m−2, cycle 1, n=3, mean±s.d., read-out: t1/2 (converted)",31 ± 11.7 h
same,AUC(0-inf),[1]; [11],5870 ± 1060 ng·h/mL
same,Cmax,[1]; [11],3370 ± 591 ng/mL
same,half-life,"[1]; 110 mg m−2 1-h infusion with cisplatin 75 mg m−2, cycle 1, n=12, mean±s.d., read-out: t1/2 (converted)",30.6 ± 7.5 h
same,AUC(0-inf),[1]; [12],12200 ng·h/mL
same,Cmax,[1]; [12],5770 ng/mL
same,half-life,"[1]; 150 mg m−2 1-h infusion with cisplatin 75 mg m−2, cycle 1, n=1, read-out: t1/2 (converted)",31.4 h
same,half-life,"[1]; 150 mg, mean±s.d. of the three dose groups (80, 110, 150 mg m−2), cycle 1, read-out: terminal half-life (converted)",30.8 ± 7.7 h
same,clearance,[1]; [13],317±60 ml min^−1 m^−2
same,volume of distribution at steady state,[1]; [13],258±96 l m^−2
same,clearance in the 150 mg m−2 patient relative to patients at 80 or 110 mg m−2,[1]; n=1 at 150 mg m−2,approximately one-third lower
same,"Mild hypersensitivity reactions (grade 2 rash and dyspnea), patients affected","[2]; 110 mg m−2 DL, with steroid and H1/H2-antagonist premedication",only one patient
same,maximum tolerated dose (MTD),[2]; [14],110 mg m^−2
same,recommended phase II dose,[2]; [14],110 mg m^−2
same,median duration of neutropenia,"[2]; DL 1, 80 mg m−2",4 days
same,median time to the neutrophil nadir,"[2]; DL 1, 80 mg m−2",12 days
same,median duration of neutropenia,"[2]; DL 2, 110 mg m−2",8 days
same,median time to the neutrophil nadir,"[2]; DL 2, 110 mg m−2",14 days
same,MTD (dose level designated),"[2]; DL 2, 110 mg m−2 with cisplatin 75 mg m−2",MTD
same,median duration of neutropenia,"[2]; DL 3, 150 mg m−2",4 days
same,median time to the neutrophil nadir,"[2]; DL 3, 150 mg m−2",8 days
same,"alopecia, patients affected","[2]; all dose levels, 16 patients",All patients but one
same,"stable disease as best response, patients","[3]; DL 1, 80 mg m−2 with cisplatin, ovarian cancer, NSCLC, CUP",three patients
same,"progressive disease, patients","[3]; DL 2, 110 mg m−2 with cisplatin, lung cancer (two), ovarian sarcoma, CUP",Four patients
same,complete remissions,"[3]; DL 2, 110 mg m−2 with cisplatin, ovarian (two) and cervical cancer (one)",three complete remissions
same,partial response,"[3]; DL 2, 110 mg m−2 with cisplatin, ovarian cancer",One partial response
same,"stable disease, patients","[3]; DL 2, 110 mg m−2 with cisplatin, urachus carcinoma and NSCLC",two patients
same,best response of the only patient treated,"[3]; DL 3, 150 mg m−2 with cisplatin, CUP",disease progression
same,"objective response, patients","[3]; all dose levels, 16 patients",four patients
same,maximum tolerated dose (MTD),[4],175 mg m^−2
same,MTD,[5],50 mg m^−2
same,MTD,"[6]; with carboplatin AUC 5, every 3 weeks",125 mg m^−2
same,Dose-limiting toxicities (DLT),"[6]; with carboplatin, every 3 weeks",febrile neutropenia and slow recovery from neutropenia
same,dose-limiting toxicities,[7],prolonged grade 4 neutropenia and delayed haematological recovery
same,antiproliferative activity,[8]; cell lines resistant through P-glycoprotein overexpression or beta-tubulin mutations,potent antiproliferative activity
same,cell cycle effect,[8],G2/M cell cycle arrest
same,in vivo activity,[9],potent in vivo activity
